The record followed here is BindingDB's records for PubMed 36325400 (Prince Sattam Bin Abdulaziz University, 2022).

Broadly, the pIC50 is the negative decadic logarithm of the IC50, by convention in mol/L.

pIC50: −log10 of the molar value.

In the assay the target is Phospholipase A2 group V (Homo sapiens) (UniProt P39877). The experiment in a line: Inhibition of recombinant human sPLA2-V.
Sequence of Phospholipase A2 group V (Homo sapiens) (P39877 whole entry, looked up): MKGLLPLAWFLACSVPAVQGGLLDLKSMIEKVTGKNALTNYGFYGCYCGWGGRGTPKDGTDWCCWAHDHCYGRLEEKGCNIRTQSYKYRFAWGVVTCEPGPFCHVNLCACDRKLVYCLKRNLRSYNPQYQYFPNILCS

As to `COc1ccnc(Nc2n[nH]c(N)c2C#N)c1`, the negative logarithm of the IC50 (pIC50) is 5.51.
Under `COc1ccnc(Nc2nn3c(SC)c(C#N)c(N)nc3c2C#N)c1` stands 5.59; under `COc1ccnc(Nc2nn3c(SC)c(C#N)c(O)nc3c2C#N)c1`, 6.00.
Under `COc1ccnc(Nc2nn3c(C)cc(C)nc3c2C#N)c1` stands 5.49; under `CCOc1cc(C)nc2c(C#N)c(Nc3cc(OC)ccn3)nn12`, 5.77; under `CCOc1cc(N)n2nc(Nc3cc(OC)ccn3)c(C#N)c2n1`, 5.49.
For the compound `C[C@@H]1C[C@H]2[C@@H]3CCC4=CC(=O)C=C[C@]4(C)[C@@]3(F)[C@@H](O)C[C@]2(C)[C@@]1(O)C(=O)CO` [dexamethasone (tetramethyl-rhodamine conjugated )], the negative-log IC50 (pIC50) was 6.23.
